In PubChem BioAssay (NCI) one finds GI50 and TGI data, which are given here for 12 molecules.

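Protocol summary: plate cells (96-well), add compound at 5 concentrations, incubate 48 h, interpolate endpoints linearly. GI50 = concentration required for 50% inhibition of growth. TGI marks complete inhibition of growth.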

Among the test systems are TK-10 renal; SK-MEL-28 melanoma; CAKI-1 renal; U251 CNS; HT29 colon; LOX IMVI melanoma; SK-OV-3 ovarian; HCC-2998 colon; 786-0 renal; NCI/ADR-RES ovarian.
Holding throughout (assay): NCI tumour cell line growth inhibition, 48 h

Turning to `COc1c(CCC[P+](c2ccccc2)(c2ccccc2)c2ccccc2)cc2c(c1OC)OCO2`, the GI50 was 4.71 µM in the assay with TK-10 renal; 769 nM with SK-MEL-28 melanoma; 2450 nM in the assay with CAKI-1 renal; 1770 nM in the assay with U251 CNS; 1080 nM in the assay on HT29 colon; 2400 nM in the assay on LOX IMVI melanoma. In addition, the GI50 was 2560 nM with SK-OV-3 ovarian, 2220 nM with HCC-2998 colon, 3910 nM with 786-0 renal and over 100000 nM with NCI/ADR-RES ovarian. Further, the TGI in the assay on TK-10 renal was determined as 34.7 µM; in the assay with SK-MEL-28 melanoma, 14.8 µM; in the assay on CAKI-1 renal, 7.35 µM; in the assay on U251 CNS, 19.7 µM; with HT29 colon, 18.8 µM; in the assay on LOX IMVI melanoma, 10.4 µM. Further, the TGI is 8.45 µM in the assay with SK-OV-3 ovarian, 14.6 µM in the assay on HCC-2998 colon, 26.9 µM with 786-0 renal and over 100 µM in the assay with NCI/ADR-RES ovarian.

Take `Cc1ccc(/C=C2\CN(C(=O)OC(C)(C)C)C/C(=C\c3ccc(C)cc3)C2=O)cc1`: the GI50 with TK-10 renal is over 40.7 µM; in the assay with SK-MEL-28 melanoma it was 11600 nM; in the assay on CAKI-1 renal it was 576 nM; with U251 CNS, 489 nM; in the assay with HT29 colon, 460 nM; in the assay with LOX IMVI melanoma, 74.3 nM. The GI50 is 268 nM in the assay with HCC-2998 colon, 445 nM in the assay on 786-0 renal and 281 nM with NCI/ADR-RES ovarian. In addition, the TGI in the assay on TK-10 renal is over 100 µM; with SK-MEL-28 melanoma, over 100 µM; in the assay with CAKI-1 renal, over 100 µM; with U251 CNS, over 100 µM; with HT29 colon, over 40.7 µM; in the assay with LOX IMVI melanoma it was over 100 µM. Also, the TGI is 97.5 µM in the assay with SK-OV-3 ovarian, 0.927 µM with HCC-2998 colon, over 100 µM with 786-0 renal and over 100 µM with NCI/ADR-RES ovarian.

As to `CCCN=Cc1cc(Cc2ccc(O)c(C=NCCC)c2)ccc1O`, the TGI in the assay on TK-10 renal was 57.4 µM; with CAKI-1 renal, 73.8 µM; in the assay with U251 CNS it was 9.22 µM; in the assay with HT29 colon, 27.6 µM; in the assay on LOX IMVI melanoma, 13.4 µM; in the assay with SK-OV-3 ovarian, 82.4 µM. The TGI stood at 27.8 µM in the assay with HCC-2998 colon, 32.1 µM in the assay with 786-0 renal and 59.6 µM in the assay with NCI/ADR-RES ovarian.

For `CNC(=O)OCc1nc(SC2CCCCO2)n(C)c1COC(=O)NC` (stereo unspecified), the TGI with SK-MEL-28 melanoma, in the assay with CAKI-1 renal, with U251 CNS, in the assay on HT29 colon, in the assay with LOX IMVI melanoma and with SK-OV-3 ovarian was over 100 µM in each case. The TGI with HCC-2998 colon, with 786-0 renal and in the assay on NCI/ADR-RES ovarian was over 100 µM each time.

Regarding `O=C(Cn1ccc(=O)[nH]c1=O)Nc1ccc(C(=O)O)c(O)c1`, the TGI in the assay on TK-10 renal, in the assay on SK-MEL-28 melanoma, in the assay on CAKI-1 renal, in the assay with U251 CNS, in the assay with HT29 colon and in the assay on LOX IMVI melanoma was over 100 µM throughout. Besides, the TGI in the assay with 786-0 renal and with NCI/ADR-RES ovarian was over 100 µM in each case.

Take `COc1ccccc1NC(=O)CC(=O)N1N=C(C)C(N=Nc2ccc(S(N)(=O)=O)cc2)C1=O` (stereo unspecified): the TGI in the assay with TK-10 renal, in the assay on SK-MEL-28 melanoma, with CAKI-1 renal, in the assay with U251 CNS, in the assay with HT29 colon and with LOX IMVI melanoma was over 100 µM each time. For the same molecule, the TGI in the assay with SK-OV-3 ovarian, with HCC-2998 colon and in the assay on 786-0 renal was over 100 µM throughout.

For `CN(CCCN)CCCNc1nc2ccccc2c2[nH]c3ccccc3c12`, the GI50 in the assay on TK-10 renal is 0.54 µM; in the assay with SK-MEL-28 melanoma it was 342 nM; in the assay on CAKI-1 renal it was 259 nM; in the assay with U251 CNS, 159 nM; with HT29 colon it was 193 nM; in the assay with SK-OV-3 ovarian, 2070 nM. For the same molecule, the GI50 with HCC-2998 colon was 113 nM; with 786-0 renal it was 169 nM; in the assay with NCI/ADR-RES ovarian, 1480 nM. In addition, the TGI in the assay with TK-10 renal came out at 3.16 µM; in the assay with SK-MEL-28 melanoma, 1.17 µM; with CAKI-1 renal it was 0.754 µM; in the assay with U251 CNS it was 1.07 µM; with HT29 colon it was 0.951 µM; in the assay on SK-OV-3 ovarian, 7.29 µM. For the same molecule, the TGI with HCC-2998 colon came to 0.271 µM; with 786-0 renal, 0.853 µM; with NCI/ADR-RES ovarian, 10.8 µM.

Regarding `COc1ccc(N2C(=O)c3c4c(c5c([nH]c6ncccc65)c3C2=O)CCC(C(C)(C)C)C4)cc1` (stereo unspecified), the TGI with TK-10 renal was over 100 µM; with SK-MEL-28 melanoma, over 100 µM; in the assay with U251 CNS, 98 µM; in the assay with HT29 colon, over 100 µM; in the assay with SK-OV-3 ovarian it was over 100 µM; with HCC-2998 colon, over 100 µM. For the same molecule, the TGI in the assay with 786-0 renal and in the assay with NCI/ADR-RES ovarian was over 100 µM each time.

With `CN(C)/C=C/c1nnc([N+](=O)[O-])s1`, the TGI was 58.5 µM in the assay on TK-10 renal; 40.5 µM in the assay on CAKI-1 renal; 51.8 µM in the assay on U251 CNS; 14.6 µM with HT29 colon; 17.4 µM in the assay on LOX IMVI melanoma; 55.2 µM with SK-OV-3 ovarian. For the same molecule, the results for the TGI in the assay on HCC-2998 colon, with 786-0 renal and in the assay on NCI/ADR-RES ovarian were 33.2 µM, 36.3 µM and 37.7 µM, respectively.

As for `CCOC(=O)C1=C(C)N(Cc2ccccc2)C(C)=C(C(=O)OCC)C1c1ccccc1O`, the TGI was over 100 µM in the assay on TK-10 renal; over 100 µM with SK-MEL-28 melanoma; over 100 µM with CAKI-1 renal; over 100 µM in the assay on U251 CNS; over 100 µM in the assay with HT29 colon; 39.7 µM in the assay on LOX IMVI melanoma. In addition, the TGI in the assay with SK-OV-3 ovarian, in the assay on HCC-2998 colon and in the assay with 786-0 renal was over 100 µM in each case.

With `Cc1ccc(C(=O)O/N=C2/CCC/C2=C\c2ccccc2)cc1`, the TGI in the assay with TK-10 renal, in the assay with SK-MEL-28 melanoma, in the assay on CAKI-1 renal, in the assay with U251 CNS, in the assay with HT29 colon and with LOX IMVI melanoma was over 100 µM throughout. Also, the TGI in the assay on SK-OV-3 ovarian, with HCC-2998 colon and in the assay on 786-0 renal was over 100 µM each time.

On to `C=C1C(=O)O[C@H]2[C@H]1[C@H](OC(=O)/C(C)=C\C)CC(=C)[C@@H]1[C@H](O)[C@H]3O[C@@]3(C)[C@@]12O`, for which the TGI in the assay with TK-10 renal, with SK-MEL-28 melanoma, with CAKI-1 renal, in the assay on U251 CNS, in the assay on HT29 colon and in the assay on LOX IMVI melanoma was over 100 µM throughout. For the same molecule, the TGI in the assay with SK-OV-3 ovarian, in the assay on HCC-2998 colon and in the assay on 786-0 renal was over 100 µM throughout.
